Legend:
Type in all cases: tissue-based, Heart left ventricle
[1] = Inhibition of Sus scrofa (pig) left ventricle Ca2+-ATPase activity of cardiac myosin assessed as residual activity at 0.8 uM
[2] = Inhibition of Sus scrofa (pig) left ventricle Ca2+-ATPase activity of cardiac myosin assessed as inorganic phosphorus released from protein at 0.2 to 1 uM; details: TDE = time-dependent effect
[3] = Inhibition of Sus scrofa (pig) left ventricle Ca2+-ATPase activity of cardiac myosin assessed as inorganic phosphorus released from protein at 0.2 uM after 1 hr
[4] = Inhibition of Sus scrofa (pig) left ventricle Ca2+-ATPase activity of cardiac myosin assessed as inorganic phosphorus released from protein at > 0.1 uM after 10 min
[5] = Inhibition of Sus scrofa (pig) left ventricle Ca2+-ATPase activity of cardiac myosin assessed as inorganic phosphorus released from protein at 0.05 to 0.4 uM
[6] = Inhibition of Sus scrofa (pig) left ventricle Ca2+-ATPase activity of cardiac myosin assessed as inorganic phosphorus released from protein at 0.4 uM in presence of Mg2+
[7] = Inhibition of Sus scrofa (pig) left ventricle Ca2+-ATPase activity of cardiac myosin assessed as inorganic phosphorus released from protein at 0.05 uM after 30 min; details: 0.5 h
[8] = Inhibition of Sus scrofa (pig) left ventricle Ca2+-ATPase activity of cardiac myosin assessed as inorganic phosphorus released from protein at 0.2 uM after 10 min

Activity [1]: 0.12 U
inhibition (INH) [2]: tde
inhibition (INH) [3]: Active
inhibition (INH) [4]: Active
inhibition (INH) [5]: Active
inhibition (INH) [6]: Not Active
inhibition (INH) [7]: Active
inhibition (INH) [8]: Active
SMILES: COc1cccc2c1C(=O)c1c(O)c3c(c(O)c1C2=O)C[C@@](O)(C(C)=O)C[C@@H]3O[C@H]1C[C@H](N)[C@H](O)[C@H](C)O1 [DAUNORUBICIN]
